According to patent US12291501B2 (University of Florida Research Foundation, Inc., priority 2021, dated 2025):
Where “and” joins values, the source holds several entries; their conditions need not be identical. Identical values can stand only once. Entries after “also recorded” stand apart in the source; their conditions may differ. Like-named read-outs stand apart in the source and are kept apart here.

Columns and labels:
α7 nAChR [1] = target: T1, α7 nAChR (Homo sapiens, UniProt P36544); assay: Two-electrode voltage-clamp, agonist concentration-response, α7 nAChR in Xenopus oocytes; format: cell-based; conditions: for EC50 / α7 Imax: net charge, ± standard error of fit; for α7 Imax: relative to ACh (Imax = 1)
T1 construct: expressed in transfected cells; host or cells: Xenopus laevis oocytes, injected with in vitro transcribed RNA
T1 sequence (P36544 23-502): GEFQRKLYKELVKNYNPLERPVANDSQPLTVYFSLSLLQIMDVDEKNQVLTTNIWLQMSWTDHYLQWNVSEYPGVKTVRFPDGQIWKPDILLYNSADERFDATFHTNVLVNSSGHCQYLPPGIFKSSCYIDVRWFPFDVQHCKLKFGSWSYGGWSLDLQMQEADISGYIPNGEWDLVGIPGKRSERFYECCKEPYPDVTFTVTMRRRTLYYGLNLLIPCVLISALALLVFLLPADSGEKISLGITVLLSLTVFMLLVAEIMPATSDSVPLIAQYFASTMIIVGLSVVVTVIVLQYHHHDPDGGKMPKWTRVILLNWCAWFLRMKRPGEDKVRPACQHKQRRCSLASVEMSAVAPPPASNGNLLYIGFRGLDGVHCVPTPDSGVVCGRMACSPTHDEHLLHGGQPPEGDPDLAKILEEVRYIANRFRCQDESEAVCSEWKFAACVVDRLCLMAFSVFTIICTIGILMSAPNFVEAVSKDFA
Text: (§1) Electrophysiology: Xenopus oocytes were microinjected with RNAs to produce functional nAChR which were characterized by two-electrode voltage-clamp measurements. FIGS. 5A-7D present concentration-response curves for the new compounds evaluated with α7, α9, and α9α10 receptors. Table 1 presents the values for Imax and EC50 with these receptors and Table 2 summarizes inhibition data for the compounds with heteromeric nAChR.
(§2) Molecular Biology: Plasmid DNAs encoding the human α7 and heteromeric nAChR were obtained from Jon Lindstrom (University of Pennsylvania, Philadelphia, PA). Mouse muscle subunit clones were obtained from Jim Boulter (Salk Institute, La Jolla CA) and Paul Gardner (Dartmouth, Hanover NH). […] Plasmid DNA encoding the human α10 nAChR was obtained from J. Michael McIntosh. Plasmid DNA encoding the human α9 nAChR and the human receptor-associated protein of the synapse (RAPSYN) with codon optimization for expression in Xenopus laevis were obtained from Katrin Richter. […] After linearization and purification of the plasmid DNAs, RNAs were prepared using the mMessage mMachine in vitro RNA transcription kit (Ambion, Austin, TX). […] Oocytes were maintained in Barth's solution containing 0.32 mM Ca(NO3)2 and 0.41 mM CaCl2, and recordings were conducted 2-20 days after injection.
(§3) Electrophysiology: Two-electrode voltage-clamp experiments were conducted using OpusXpress 6000A (Molecular Devices, Union City CA, USA). Both the voltage and current electrodes were filled with 3 M KCl. Oocytes were voltage-clamped at −60 mV at rt.
(§4) The responses were calculated as both peak-current amplitudes and net charge. Data were collected at 50 Hz, filtered at 20 Hz, and analyzed by Clampfit (Molecular Devices) and Excel (Microsoft, Redmond, WA, United States). Data are expressed as means±SEM from at least five oocytes for each experiment and plotted with Kaleidagraph 4.5.2 (Abelbeck Software, Reading, PA, United States). Each episode of data acquisition was a total of 210 s and included an initial 30 s period used to define the baseline for the drug-evoked responses. After 30 s, drugs were applied, and the following 120 s were defined as the drug response period for analysis. […] The values for the curve fits were generated using the Levenberg-Marquardt algorithm to obtain the best Chi-Square fit to the Hill equation using the Kaleidagraph 4.5.2 plotting program. The errors in the tables are the calculated standard errors of the fit parameters based on the goodness of fit.

α9 nAChR [2] = target: T2, α9 nAChR (Homo sapiens, UniProt Q9UGM1); conditions: earlier reports / Papke et al. (2022), Richter et al. (2022); cited from earlier work
T2 construct: expressed in transfected cells; host or cells: Xenopus laevis oocytes, injected with in vitro transcribed RNA
T2 sequence (Q9UGM1 26-479 limits assumed): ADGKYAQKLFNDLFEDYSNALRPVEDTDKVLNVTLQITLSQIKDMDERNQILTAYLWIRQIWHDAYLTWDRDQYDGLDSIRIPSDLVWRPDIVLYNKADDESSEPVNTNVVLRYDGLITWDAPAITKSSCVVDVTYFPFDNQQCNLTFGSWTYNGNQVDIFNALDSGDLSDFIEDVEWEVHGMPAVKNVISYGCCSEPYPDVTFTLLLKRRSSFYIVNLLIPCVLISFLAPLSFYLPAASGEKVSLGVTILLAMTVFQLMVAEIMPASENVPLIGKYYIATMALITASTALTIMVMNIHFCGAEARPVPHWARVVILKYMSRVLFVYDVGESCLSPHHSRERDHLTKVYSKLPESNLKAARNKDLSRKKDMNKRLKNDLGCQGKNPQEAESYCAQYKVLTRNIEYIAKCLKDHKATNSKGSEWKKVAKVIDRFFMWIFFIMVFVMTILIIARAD

α9 nAChR [3] = target: T2, α9 nAChR; assay: Two-electrode voltage-clamp, agonist concentration-response, α9 nAChR in Xenopus oocytes; format: cell-based; conditions: for α9 Imax: relative to ACh (Imax = 1)
Text: as §1
(§5) Molecular Biology: Plasmid DNAs encoding the human α7 and heteromeric nAChR were obtained from Jon Lindstrom (University of Pennsylvania, Philadelphia, PA). Mouse muscle subunit clones were obtained from Jim Boulter (Salk Institute, La Jolla CA) and Paul Gardner (Dartmouth, Hanover NH). The human resistance-to-cholinesterase 3 ([…]) clone was obtained from Millet Treinin (Hebrew University, Jerusalem, Israel) and RNA co-injected with α7 to improve the level and speed of receptor expression without affecting their pharmacological properties. Plasmid DNA encoding the human α10 nAChR was obtained from J. Michael McIntosh. Plasmid DNA encoding the human α9 nAChR and the human receptor-associated protein of the synapse (RAPSYN) with codon optimization for expression in Xenopus laevis were obtained from Katrin Richter. RAPSYN RNA was co-injected with the α9 and α10 to improve expression (Richter et al., (2022) Front. Cell Neurosci. 16: 779081). After linearization and purification of the plasmid DNAs, RNAs were prepared using the mMessage mMachine in vitro RNA transcription kit (Ambion, Austin, TX). Frogs were maintained in the Animal Care Service facility of the University of Florida, and all procedures were approved by the University of Florida Institutional Animal Care and Use Committee (approval number 202002669). In brief, the animals were first anesthetized for 15-20 min in 1.5 l frog tank water containing 1 g of MS-222 buffered with sodium bicarbonate. Oocytes were obtained surgically from mature female Xenopus laevis (Nasco, Ft. Atkinson WI, USA) and treated with 1.4 mg/ml type 1 collagenase (Worthington Biochemicals, Freehold NJ, USA) for 2-4 h at rt in Ca2+-free Barth's solution (88 mM NaCl, 1 mM KCl, 2.38 mM NaHCO3, 0.82 mM MgSO4, 15 mM HEPES, and 12 mg/l tetracycline, pH 7.6) to remove the ovarian tissue and the follicular layers. Stage V oocytes were injected with 4-6 ng CHRNA7 RNA and 2-3 ng RIC3 RNA (2:1 ratio) in 50 nl water, or with 12 ng CHRNA9 RNA and 3 ng RAPSN RNA, or along with 12 ng CHRNA10 RNA in 50 nl water. Oocytes were maintained in Barth's solution containing 0.32 mM Ca(NO3)2 and 0.41 mM CaCl2, and recordings were conducted 2-20 days after injection.
(§6) Electrophysiology: Two-electrode voltage-clamp experiments were conducted using OpusXpress 6000A (Molecular Devices, Union City CA, USA). Both the voltage and current electrodes were filled with 3 M KCl. Oocytes were voltage-clamped at −60 mV at rt. The oocytes were perfused with Ringer's solution (115 mM NaCl, 2.5 mM KCl, 1.8 mM CaCl2, 10 mM HEPES, 1 μM atropine, pH 7.2) at 2 ml/min. […] Drug applications were 12 s in duration followed by 181 s washout periods.
as §4, with “The errors in the tables are the calculated standard errors of the fit parameters based on the goodness of fit.” left out

α7 nAChR [4] = target: T1, α7 nAChR; conditions: cited from earlier work; for Agonist character at α7: earlier reports / Papke et al. (2022)
α9α10 nAChR [5] = target: T3, α9α10 nAChR (Homo sapiens, UniProt Q9GZZ6+Q9UGM1); conditions: relative to ACh (Imax = 1); data taken from Papke et al. (2022); cited from earlier work
T3 construct: expressed in transfected cells; host or cells: Xenopus laevis oocytes, injected with in vitro transcribed RNA
T3 sequence (Q9UGM1 26-479 limits assumed): as above
T3 sequence (Q9GZZ6 25-450): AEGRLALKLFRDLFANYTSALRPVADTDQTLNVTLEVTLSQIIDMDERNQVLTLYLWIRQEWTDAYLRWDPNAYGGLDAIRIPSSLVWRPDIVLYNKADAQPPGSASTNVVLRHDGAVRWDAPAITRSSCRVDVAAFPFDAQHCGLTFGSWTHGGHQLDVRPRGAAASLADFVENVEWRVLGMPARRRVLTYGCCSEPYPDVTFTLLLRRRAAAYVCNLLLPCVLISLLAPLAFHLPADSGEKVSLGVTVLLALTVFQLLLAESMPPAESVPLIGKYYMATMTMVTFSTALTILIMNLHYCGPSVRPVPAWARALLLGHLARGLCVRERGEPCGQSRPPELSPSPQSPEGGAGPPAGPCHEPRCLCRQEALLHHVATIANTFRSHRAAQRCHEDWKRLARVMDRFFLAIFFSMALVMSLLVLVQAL

α7 nAChR [6] = target: T1, α7 nAChR; assay: α7 responses to drugs co-applied with the PAM PNU-120596 (silent agonism); format: cell-based; conditions: for Response co-applied with PNU-120596, normalized to ACh co-applied with PNU-120596: drug 30 μM + 10 μM PNU-120596, normalized to 30 μM ACh + 10 μM PNU-120596; for Response co-applied with PNU-120596 relative to the ACh controls: 30 μM compound + 10 μM PNU-120596, relative to ACh alone controls
Text: as §2, §3, §4

α4β2 nAChR = target: T4, α4β2 nAChR (Homo sapiens, UniProt P17787+P43681); assay: Inhibition of control ACh responses by co-application, α4β2 nAChR in oocytes; format: cell-based; conditions: 3 μM compound co-applied with ACh; fraction of control ACh response
T4 construct: expressed in transfected cells; host or cells: Xenopus laevis oocytes
T4 sequence (P43681 29-627 limits assumed): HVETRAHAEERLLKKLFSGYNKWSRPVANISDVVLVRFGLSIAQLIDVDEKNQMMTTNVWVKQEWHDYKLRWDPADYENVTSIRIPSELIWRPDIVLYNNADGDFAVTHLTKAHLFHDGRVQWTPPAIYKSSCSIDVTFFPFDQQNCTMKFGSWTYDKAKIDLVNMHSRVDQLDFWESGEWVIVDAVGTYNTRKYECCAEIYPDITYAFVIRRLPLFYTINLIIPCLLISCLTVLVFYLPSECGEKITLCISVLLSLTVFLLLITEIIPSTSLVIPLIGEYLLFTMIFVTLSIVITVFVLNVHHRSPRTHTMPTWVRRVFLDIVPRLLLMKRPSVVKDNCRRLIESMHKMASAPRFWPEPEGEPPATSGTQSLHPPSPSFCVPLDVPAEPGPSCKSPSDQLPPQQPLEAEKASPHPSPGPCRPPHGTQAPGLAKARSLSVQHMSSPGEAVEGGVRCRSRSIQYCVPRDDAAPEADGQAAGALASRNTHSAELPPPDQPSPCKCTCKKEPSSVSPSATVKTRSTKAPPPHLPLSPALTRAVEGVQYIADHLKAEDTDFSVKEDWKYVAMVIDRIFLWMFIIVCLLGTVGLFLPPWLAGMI
T4 sequence (P17787 26-502): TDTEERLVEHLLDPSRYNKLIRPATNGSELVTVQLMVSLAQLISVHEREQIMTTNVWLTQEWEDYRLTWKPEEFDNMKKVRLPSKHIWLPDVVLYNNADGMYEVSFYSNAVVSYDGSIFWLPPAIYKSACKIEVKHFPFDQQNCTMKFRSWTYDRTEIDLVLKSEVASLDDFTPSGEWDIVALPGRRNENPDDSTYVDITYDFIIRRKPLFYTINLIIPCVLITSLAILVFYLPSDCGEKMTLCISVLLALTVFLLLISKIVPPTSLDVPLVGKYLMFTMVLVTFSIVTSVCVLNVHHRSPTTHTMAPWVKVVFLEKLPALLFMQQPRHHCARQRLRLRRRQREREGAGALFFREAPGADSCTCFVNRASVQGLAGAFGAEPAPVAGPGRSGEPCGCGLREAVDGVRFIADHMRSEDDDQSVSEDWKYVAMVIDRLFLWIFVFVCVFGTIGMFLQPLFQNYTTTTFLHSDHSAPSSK
Protocol: (§7) Initial profiling against heteromeric receptors: The test compounds for their ability to activate or inhibit other nAChR subtypes were evaluated. Agonist activity was evaluated by applying the compounds at 100 or 30 μM to human α4β2 and α3β4 as well as to mouse muscle α1β1εδ nAChR expressed in Xenopus oocytes. […] The inhibitory activity was generally low (Table 3).
as §5, §6, §4

α1β1εδ nAChR = target: T5, α1β1εδ nAChR (Mus musculus, UniProt P02716+P04756+P09690+P20782); assay: Inhibition of control ACh responses by co-application, muscle α1β1εδ nAChR in oocytes; format: cell-based; conditions: 3 μM compound co-applied with ACh; fraction of control ACh response
T5 construct: expressed in transfected cells; host or cells: Xenopus laevis oocytes
Protocol: as §7, §5, §6, §4

α9α10 nAChR [7] = target: T3, α9α10 nAChR; assay: Two-electrode voltage-clamp, agonist concentration-response, α9α10 nAChR in Xenopus oocytes; format: cell-based; conditions: for α9α10 Imax: relative to ACh (Imax = 1)
Text: as §1, §5, §6
as §4, with “The errors in the tables are the calculated standard errors of the fit parameters based on the goodness of fit.” left out

α3β4 nAChR = target: T6, α3β4 nAChR (Homo sapiens, UniProt P30926+P32297); assay: Inhibition of control ACh responses by co-application, α3β4 nAChR in oocytes; format: cell-based; conditions: 3 μM compound co-applied with ACh; fraction of control ACh response
T6 construct: expressed in transfected cells; host or cells: Xenopus laevis oocytes
T6 sequence (P32297 32-505): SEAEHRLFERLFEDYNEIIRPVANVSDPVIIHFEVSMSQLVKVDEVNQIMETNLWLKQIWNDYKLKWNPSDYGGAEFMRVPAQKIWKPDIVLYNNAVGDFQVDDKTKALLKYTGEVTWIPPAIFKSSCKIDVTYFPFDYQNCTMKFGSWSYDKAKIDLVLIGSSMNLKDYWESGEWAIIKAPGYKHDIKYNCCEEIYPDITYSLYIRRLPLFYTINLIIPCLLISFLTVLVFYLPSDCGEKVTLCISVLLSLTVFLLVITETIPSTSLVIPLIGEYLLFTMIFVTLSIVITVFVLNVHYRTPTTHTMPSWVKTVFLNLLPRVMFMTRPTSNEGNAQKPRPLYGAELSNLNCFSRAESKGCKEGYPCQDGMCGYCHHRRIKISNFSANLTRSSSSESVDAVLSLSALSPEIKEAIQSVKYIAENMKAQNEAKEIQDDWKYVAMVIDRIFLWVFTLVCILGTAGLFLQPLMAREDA
T6 sequence (P30926 22-498): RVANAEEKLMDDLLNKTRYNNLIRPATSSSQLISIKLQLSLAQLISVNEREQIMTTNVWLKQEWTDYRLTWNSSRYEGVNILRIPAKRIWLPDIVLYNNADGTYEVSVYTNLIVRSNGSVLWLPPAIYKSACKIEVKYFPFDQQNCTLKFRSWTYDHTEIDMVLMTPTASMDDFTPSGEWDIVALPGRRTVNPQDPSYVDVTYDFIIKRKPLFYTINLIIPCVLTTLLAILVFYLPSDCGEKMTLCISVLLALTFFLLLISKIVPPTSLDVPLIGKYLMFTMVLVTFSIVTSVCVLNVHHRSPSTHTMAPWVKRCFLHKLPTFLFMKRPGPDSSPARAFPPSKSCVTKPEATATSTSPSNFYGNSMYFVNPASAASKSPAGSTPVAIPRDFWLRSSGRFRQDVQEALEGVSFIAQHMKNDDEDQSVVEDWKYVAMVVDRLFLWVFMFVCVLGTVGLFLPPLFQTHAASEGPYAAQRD
Protocol: as §7, §5, §6, §4

[8] = peak currents, ± standard error of fit
[9] = 3e vs larger ammonium analogs, 3h relative to 3g

SMILES	Agonist character / efficacy at α7 (α7 nAChR [1])	Agonist character / efficacy at α9 (α9 nAChR [3])	Agonist character at α7 (α7 nAChR [4])	EC50 (α7 nAChR [1]) [nM]	α7 Imax (α7 nAChR [1])	Response co-applied with PNU-120596, normalized to ACh co-applied with PNU-120596 (α7 nAChR [6])	Effect of co-application on the control ACh responses, α4β2 (α4β2 nAChR)	Effect of co-application on the control ACh responses, α1β1εδ (α1β1εδ nAChR)	EC50 (α9 nAChR [3]; [8]) [nM]	α9 Imax (α9 nAChR [3]; [8])	Agonist character / efficacy at α9α10 (α9α10 nAChR [7])	EC50 (α9α10 nAChR [7]; [8]) [nM]	α9α10 Imax (α9α10 nAChR [7]; [8])	Effect of co-application on the control ACh responses, α3β4 (α3β4 nAChR)	further results
CC[N+]1(CC)CCN(c2ccc(C(=O)Nc3cccc(C)n3)cc2)CC1.[I-] [Compound 2, 1,1-diethyl-4-(4-((6-methylpyridin-2-yl)carbamoyl)phenyl)piperazin-1-ium iodide]	partial agonist	full agonist	partial agonists												Agonist character at α9 (α9 nAChR [2]): full α9 agonist; EC50 (α7 nAChR [4]; data taken from Papke et al. (2022)): 4300 to 6400 nM; α7 Imax (α7 nAChR [4]; relative to ACh (Imax = 1), data taken from Papke et al. (2022)): 0.40-0.57; α9α10 Imax (α9α10 nAChR [5]): 0.90 ± 0.02
CC[N+]1(CC)CCN(c2ccc(-c3ncco3)cc2)CC1.[I-] [Compound 3g, 1,1-diethyl-4-(4-(oxazol-2-yl)phenyl)piperazin-1-ium iodide]	strongly diminished activity; also recorded: very weak partial agonists	full agonism; also recorded: full agonist		1700 ± 400	0.12 ± 0.01 and 0.12	0.05	0.823 ± 0.043	0.353 ± 0.071	380 ± 170	1.29±0.13	strong partial agonist	700 ± 30	0.83±0.01	0.507 ± 0.032	α9 EC50 (α9 nAChR [3]; [8]): submicromolar potency; α9α10 EC50 (α9α10 nAChR [7]; [8]): submicromolar potency
CC[N+]1(CC)CCN(c2ccc(-n3cccn3)cc2)CC1.[I-] [Compound 3h, 4-(4-(1H-pyrazol-1-yl)phenyl)-1,1-diethylpiperazin-1-ium iodide]	very weak partial agonists	full agonist		18000 ± 600	0.088 ± 0.001 and 0.088	0.17	0.913 ± 0.026	0.590 ± 0.062	1490 ± 240	1.01 ± 0.04	partial agonist	2000 ± 800	0.59 ± 0.05	0.736 ± 0.034	Fold loss of potency at α7 relative to comparator compound (α7 nAChR [1]; 3h compared with 3g): 10 fold; Response co-applied with PNU-120596 relative to the ACh controls (α7 nAChR [6]): approximately 4 times; Fold loss of potency at α9 relative to comparator compound (α9 nAChR [3]; [9]): 3 fold; Fold loss of potency at α9α10 relative to comparator compound (α9α10 nAChR [7]; [9]): 3 fold
CC[N+]1(CC)CCN(c2ccc(-n3cccc3)cc2)CC1.[I-] [Compound 3i, 4-(4-(1H-pyrrol-1-yl)phenyl)-1,1-diethylpiperazin-1-ium iodide]	reduced efficacy	reduced efficacy; also recorded: weakened partial agonist		27000 ± 4000	0.041 ± 0.002 and 0.041	0.08	0.709 ± 0.086	0.691 ± 0.094	1120 ± 250	0.27 ± 0.01	weakened partial agonist	1500 ± 600	0.17 ± 0.01	0.387 ± 0.057	Response co-applied with PNU-120596 relative to the ACh controls (α7 nAChR [6]): ~2 times
CC[N+]1(CC)CCCCC1 [diE-piperidinium, reference compound]			silent agonist												
C[N+]1(C)CCCCC1 [diM-piperidinium, reference compound]			essentially a full agonist												
CC[N+]1(CC)CCN(c2ccc(C(F)(F)F)cc2)CC1 [pCF3-diEPP, reference compound]															Agonist character at α9 (α9 nAChR [2]): partial agonist
